Laboratory results published in patent publication US11918548B2, “Treatment of avascular or hypovascular micro-tumors” (Katholieke Universiteit Leuven, priority 2017, dated 2024).
“And” between values parts separate entries of the source, which are not always exact repeats. Identical values can stand only once.

How the values were obtained:
[1] = system: primary hepatocellular carcinomas (HCCs); experiment: CA4P-induced tumoral necrosis in DENA-induced primary HCCs on cirrhotic liver (histopathology, microangiography); format: in vivo, rat
Description: (§1) Tumor growth was monitored weekly by MRI from the 9th week after DENA administration until the largest tumor lesion attained more than 1 mm in diameter. All recruited tumor-carrying rats received single intravenous injection of CA4P at 10 mg/kg. T2WI, T1WI, DWI and CE-T1WI were performed 4 h before and 12 h after CA4P therapy. Rats were euthanized after the last time point of MRI for postmortem microangiography and histopathology.
After the last MRI scanning, rats were anesthetized by an intraperitoneal injection of pentobarbital at 50 mg/kg. Then laparotomy was performed with blood collected via postcava and abdominal aorta cannulated, through which barium suspension was injected before the entire tumor-bearing liver was excised. With a digital mammography unit (Em-brace; Agfa-Gevaert, Mortsel, Belgium), postmortem hepatic arteriography was made at 26 kV, 32 mAs to document changes in tumor vascularity. The livers were then fixed and sliced into 3-mm sections in the axial plane corresponding to the MR images, and these sections were radiographed at 26 kV, 18 mAs for qualitative analysis.
(§2) After microangiography, the tumor sections were paraffin imbedded, sliced into 5 μm thickness and stained with hematoxylin and eosin (H&E) for microscopic analysis using an Axiovert 200M microscope equipped with an AxioCam MR monochrome digital camera (Carl Zeiss Inc, Gottingen, Germany) and by AxioVision 4.8 software.
Due to the high analogy to the histopathological progression observed in human liver cancer, rat primary HCCs were diagnosed according to the classical histomorphologic features: malignant hepatocytic tumors, often well vascularized, with wide trabeculae (>3 cell layers), noticeable acinar pattern, small cell changes, cytologic atypia, prominent nucleoli, mitotic activity, vascular invasion, absence of Kupffer cells and the loss of the reticulin network. The differentiation of rat HCCs was further classified into Grade I-IV using a modified 4-scale Edmondson and Steiner system [Schlageter et al. cited above].
Digital images of tumor slices at a magnification of 12.5 were used to estimate the percentage of tumor necrosis by ImageJ software [Buijs et al. (2011) J Vasc Intery Radiol 22, 1175-1180]. Briefly, regions of interest were delineated around the entire tumor and the necrotic tumor, respectively, to get ‘necrotic ratio on each section’. For each tumor section, the axial slide representing this tumor block was selected as ‘section area’. Tumor necrosis on each H&E stained slice was estimated independently by 2 pathologists, and calculated with the equation: Intratumoral necrosis ratio (%)=Σ[Necrotic ratio on each section (%)×section area (mm^2)]×section thickness (mm)/[4/3π r^3] (mm^3).
Statistical analyses were carried out by GraphPad Prism (version 7.02, GraphPad Software Inc, La Jolla, Calif., USA). The Pearson's correlation coefficient was calculated between percentile tumoral necrosis calculated by histopathology and tumor diameter measured from T2WI. Numerical data were presented as mean±standard errors of the mean (SEM). Comparison of percentile tumoral necrosis was performed by unpaired […] t-test; results of ADCs between tumor and liver background were compared by two-way ANOVA. A significant difference was concluded for P<0.05.

[2] = system: micro-HCCs and cirrhotic liver; experiment: In vivo MRI (DWI-derived ADCperf/ADCdiff, T2WI, CE-T1WI) of micro-HCCs and surrounding cirrhotic liver after CA4P; design: species or system rat
Description: Images were acquired on a clinical 3.0T MRI scanner (MAGNETOM Prisma; Siemens, Erlangen, Germany) and a human wrist coil (Hand/Wrist 16, A 1.5 T Tim coil, Siemens). Twenty axial images were acquired, with a slice thickness of 2.0 mm and a gap of 0.4 mm. T2-weighted (repetition time, 4000 ms; echo time, 70 ms; flip angle, 150°; field of view, 75×56 mm^2; matrix, 256×192) and T1-weighted (repetition time, 626 ms; echo time, 15 ms; flip angle, 160°; field of view, 75×56 mm^2; matrix, 256×192) turbo spin echo (TSE) images (T2WI, T1WI) were performed weekly to monitor tumor growth, while T2WI, T1WI, diffusion-weighted imaging (DWI) and consecutive contrast-enhanced (CE-) T1WIs were acquired to evaluate CA4P treatment. For DWI, a 2-dimensional SE echo-planar imaging (EPI) sequence (repetition time, 3500 ms; echo time, 62 ms; flip angle, 90°; field of view, 136×74 mm2; matrix, 96×52) with 8 b values (0, 50, 100, 150, 400, 600, 800 and 1000 seconds/mm^2) was acquired. For CE-MRI, a bolus of 0.2 mmol/kg Gd-DOTA was injected before a series of CE-T1WIs were acquired.?
as §1
On DWI, tumor area was manually contoured with an operator-defined region of interest (ROI) on all tumor-containing images. ADC map was calculated from DWI to quantify therapeutic responses by the following mono-exponential formula: Si=S0×exp (−bi×ADC), in which Si is the signal intensity (SI) measured on the ith b value image, bi is the corresponding b value, and S0 is a variable estimating the intrinsic SI (for b=0 seconds/mm^2).
For the calculation of different ADC values, tumors were freehand delineated only on the central slices with the largest cross-sectional areas on the original DWIs at the b value of 1000 s/mm^2, in order to avoid partial volume effects. The delineation of each tumor lesion was copied to all images with different b values automatically. The average SI per tumor and per b value was then determined. The difference between ADClow (b=0, 50 and 100 s/mm^2) and ADChigh (b=600, 800 and 1000 s/mm^2) was defined as ADCperf to reflect the tissue microcapillary perfusion, while ADChigh was defined as ADCdiff [Chen et al. (2007) Methods. 43, 12-20].

rhabdomyosarcomas (R1) = experiment: CA4P in rats with liver implantation of micro rhabdomyosarcomas (R1); format: in vivo, rat
Description: To verify whether the above unexpected findings can be supported in other types of solid tumors, we intentionally studied CA4P in a group of rats with liver implantation of rhabdomyosarcomas (R1) ranging from 1 to 5 mm in diameter as monitored by noninvasive longitudinal MRI and verified by postmortem techniques. R1 has been extensively studied on VDA research before but in much larger tumor size.

cirrhotic liver = experiment: Tolerability of the procedures and liver damage in cirrhotic rats after CA4P; format: in vivo, rat
Description: as §1, §2

[3] = system: subcutaneous rhabdomyosarcomas; details: large tumors (≥14 cm^3) versus small tumors (<1 cm^3); cited from earlier work
implanted tumor models = details: in vivo; cited from earlier work
macro- and micro-cancers = details: input of the model; cited from earlier work
[4] = system: rodent sarcoma, squamous cell carcinoma, fibrosarcoma, human renal cell carcinoma, Kaposi's sarcoma and breast carcinoma; details: intraperitoneal injection; cited from earlier work
[5] = micro-HCC, CA4P 10 mg/kg iv, 12 h
[6] = 12 h after CA4P 10 mg/kg iv versus baseline

COc1ccc(/C=C\c2cc(OC)c(OC)c(OC)c2)cc1OP(=O)(O)O [CA4P, combretastatin A-4 phosphate]
tumoral necrosis, hypovascular Grade I-II well-differentiated micro-HCCs (Tumor 1-5) ([1]; histopathology, CA4P 10 mg/kg iv, 12 h): 82.77-96.45%
tumoral necrosis, Grade IV undifferentiated Tumor 7 (vascular lakes) [1, 5]: minimal necrosis
tumoral necrosis, hypervascular Grade III poorly differentiated Tumor 6 [1, 5]: 23.15%
rate of tumoral necrosis in hepatic microcancers higher than in larger HCCs ([1]; micro-HCCs ≤5 mm versus HCCs >5 mm, CA4P 10 mg/kg iv, 12 h): 36.9% and 36.93%
correlation of CA4P-induced tumoral necrosis with tumor diameter, micro-HCCs ([1]; tumors with diameters of ≤5 mm): not linearly correlated
ADCdiff in micro-HCC tumor ([2]; 12 h after CA4P 10 mg/kg iv): slightly rose
ADCdiff in surrounding cirrhotic liver ([2]; 12 h after CA4P 10 mg/kg iv): nearly unchanged
ADCperf (blood perfusion) in micro-HCC tumor [2, 6]: drop of tumor perfusion
ADCperf (blood perfusion) in surrounding cirrhotic liver [2, 6]: sharply decreased blood perfusion
duration of continuous liver ischemia ([2]; cirrhotic liver, CA4P 10 mg/kg iv): at least 12 h
tumoral necrosis on MRI, representative microcancer Tumor 1 ([2]; twelve hours after CA4P treatment, T2WI, ADC, CE-T1WI): massive tumoral necrosis
histology of representative micro R1 tumor (rhabdomyosarcomas (R1); 12 h after CA4P treatment, HE stained microscopy): massive and partial hemorrhagic tumor necrosis
necrosis in liver-implanted R1 lesions (rhabdomyosarcomas (R1); R1 of 1 to 5 mm in diameter, 10 out of 11 lesions): over 90%
survival of rats (cirrhotic liver; DENA gavage, anesthesia, MRI with contrast and intravenous CA4P treatment, 19 rats): All rats survived
necrosis in cirrhotic liver parenchyma (cirrhotic liver; microscopy, 12 h after CA4P 10 mg/kg iv): necrotic foci scattered in the cirrhotic liver
CA4P efficacy in large tumors relative to small tumors [3]: 16.6 fold
onset of tumor vascular disruption (implanted tumor models): less than 1 hour
time to extensive intratumoral necrosis (implanted tumor models): ≤ 12 h
tumour necrosis (α) known to be induced (macro- and micro-cancers): 50-99%

COc1cc2c(c(OC)c1OC)-c1ccc(OP(=O)(O)O)cc1[C@@H](NC(C)=O)CC2 [ZD6126, N-acetylcochinol-O-phosphate]
necrosis in tumors larger than 1 g [4]: ~90%
necrosis in tumors of less than 0.3 g [4]: ~25%
